From ChEMBL document CHEMBL2046362, “Synthesis and evaluation of novel potent HCV NS5A inhibitors” (Bioorg Med Chem Lett, 2012)

Key:
PBMC = assay: Cytotoxicity against human PBMC cells; format: cell-based; conditions: pbmc
Liver microsomes [1] = assay: Half life in human liver microsomes at 1 uM measured 5 to 60 mins post dose by LC-MS/MS nethod; format: ADME, Microsome
[2] = Cytotoxicity against human HuH7 cells; format: cell-based, Huh-7
[3] = molecular target: T1, Nonstructural protein 5A (Hepatitis C virus) (UniProt Q5L478); assay: Inhibition of HCV NS5A assessed as antiviral activity against HCV by viral replicon assay; conditions: Hepacivirus hominis
T1 sequence (whole entry): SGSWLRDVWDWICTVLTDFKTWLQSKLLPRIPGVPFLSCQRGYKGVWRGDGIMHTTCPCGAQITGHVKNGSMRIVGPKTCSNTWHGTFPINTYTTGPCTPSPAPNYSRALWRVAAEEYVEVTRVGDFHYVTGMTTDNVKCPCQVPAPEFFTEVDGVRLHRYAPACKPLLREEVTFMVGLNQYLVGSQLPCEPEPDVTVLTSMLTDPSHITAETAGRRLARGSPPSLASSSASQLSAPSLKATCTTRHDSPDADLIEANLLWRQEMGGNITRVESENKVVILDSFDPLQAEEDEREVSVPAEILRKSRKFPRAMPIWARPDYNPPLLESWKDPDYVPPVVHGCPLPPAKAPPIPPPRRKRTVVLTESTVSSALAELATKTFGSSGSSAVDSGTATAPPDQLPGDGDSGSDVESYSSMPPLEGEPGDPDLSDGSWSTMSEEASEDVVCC

[4] = Chemical stability in phosphate buffer assessed as compound degradation at pH 7 at 20 degC measured between 2 to 48 hrs during 48 hrs incubation period; format: physicochemical; conditions: pH 7, 48 h
[5] = Chemical stability in phosphate buffer assessed as compound degradation at pH 3 at 20 degC measured between 1 to 48 hrs during 48 hrs incubation period; conditions: pH 3, 48 h
Vero = assay: Cytotoxicity against african green monkey Vero cells; format: cell-based; conditions: chlorocebus sabaeus
CCRF-CEM = assay: Cytotoxicity against human CEM cells; format: cell-based
Liver microsomes [6] = assay: Intrinsic clearance in human liver microsomes assessed per mg protein at 1 uM measured 5 to 60 mins post dose by LC-MS/MS nethod; format: ADME, Microsome
[7] = Cytotoxicity against human primary lymphocytes; format: cell-based; conditions: lymphocyte
Cytochrome P450 2C9 = Cytochrome P450 2C9 (Homo sapiens, UniProt P11712); assay: Inhibition of CYP2C9; format: ADME
Chain of Cytochrome P450 2C9 (P11712 whole entry): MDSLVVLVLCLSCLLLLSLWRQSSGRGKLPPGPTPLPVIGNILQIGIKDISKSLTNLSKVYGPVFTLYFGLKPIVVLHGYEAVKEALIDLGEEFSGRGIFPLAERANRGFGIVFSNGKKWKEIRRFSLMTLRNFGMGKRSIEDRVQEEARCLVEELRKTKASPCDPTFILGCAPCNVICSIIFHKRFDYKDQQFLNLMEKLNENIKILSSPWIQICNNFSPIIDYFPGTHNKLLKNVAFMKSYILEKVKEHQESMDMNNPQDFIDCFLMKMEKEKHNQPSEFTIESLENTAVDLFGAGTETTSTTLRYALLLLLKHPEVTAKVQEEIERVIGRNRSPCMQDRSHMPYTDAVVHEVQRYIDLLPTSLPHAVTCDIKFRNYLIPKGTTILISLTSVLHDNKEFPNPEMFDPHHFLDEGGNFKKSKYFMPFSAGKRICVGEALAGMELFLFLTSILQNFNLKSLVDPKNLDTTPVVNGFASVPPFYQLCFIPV

COC(=O)N[C@H](C(=O)N1CCC[C@H]1c1nc(Br)c(-c2ccc(-c3ccc(-c4[nH]c([C@@H]5CCCN5C(=O)[C@@H](NC(=O)OC)C(C)C)nc4Br)cc3)cc2)[nH]1)C(C)C
CC50 (PBMC): 2.9 µM
t1/2 (Liver microsomes [1]): 67.3 min
CC50 [2]: > 1 µM
EC90 [3]: 0.014 nM
Stability [4]: Stable
Stability [5]: Stable
CC50 (Vero): 84 µM
CC50 (CCRF-CEM): 5.7 µM
CLint (Liver microsomes [6]): 10.3 µL/min/mg

COC(=O)N[C@H](C(=O)N1C[C@H](N=[N+]=[N-])C[C@H]1c1ncc(-c2ccc(-c3ccc(-c4[nH]c([C@@H]5C[C@@H](N=[N+]=[N-])CN5C(=O)[C@@H](NC(=O)OC)C(C)C)nc4Cl)cc3)cc2)[nH]1)C(C)C
CC50 (PBMC): 9.7 µM
CC50 [2]: > 1 µM
EC90 [3]: 0.0295 nM
CC50 (Vero): > 100 µM
CC50 (CCRF-CEM): 31 µM

COC(=O)N[C@H](C(=O)N1CCC[C@H]1c1ncc(-c2ccc(-c3ccc(-c4cnc([C@@H]5CCCN5C(=O)[C@@H](NC(=O)OC)C(C)C)[nH]4)cc3)cc2)[nH]1)C(C)C
EC90 [3]: 0.02 nM

COC(=O)N[C@H](C(=O)N1C[C@@H](n2cc(C(=O)OC)nn2)C[C@H]1c1ncc(-c2ccc(-c3ccc(-c4cnc([C@@H]5C[C@H](n6cc(C(=O)OC)nn6)CN5C(=O)[C@@H](NC(=O)OC)C(C)C)[nH]4)cc3)cc2)[nH]1)C(C)C
CC50 (PBMC): > 100 µM
CC50 [2]: > 1 µM
EC90 [3]: > 10 nM
CC50 (CCRF-CEM): > 100 µM

COC(=O)N[C@H](C(=O)N1C[C@@H](N=[N+]=[N-])C[C@H]1c1ncc(-c2ccc(-c3ccc(-c4cnc([C@@H]5C[C@H](N=[N+]=[N-])CN5C(=O)[C@@H](NC(=O)OC)C(C)C)[nH]4)cc3)cc2)[nH]1)C(C)C
CC50 (PBMC): 20.3 µM
CC50 [2]: > 1 µM
EC90 [3]: 0.0352 nM
CC50 (Vero): > 100 µM
CC50 (CCRF-CEM): 18.4 µM

COC(=O)N[C@H](C(=O)N1C[C@@H](n2cc(-c3ccccc3)nn2)C[C@H]1c1ncc(-c2ccc(-c3ccc(-c4cnc([C@@H]5C[C@H](n6cc(-c7ccccc7)nn6)CN5C(=O)[C@@H](NC(=O)OC)C(C)C)[nH]4)cc3)cc2)[nH]1)C(C)C
CC50 (PBMC): 96 µM
CC50 [2]: > 1 µM
EC90 [3]: > 10 nM
CC50 (Vero): > 100 µM

COC(=O)N[C@H](C(=O)N1CCC[C@H]1c1nc(-c2ccccc2)c(-c2ccc(-c3ccc(-c4[nH]c([C@@H]5CCCN5C(=O)[C@@H](NC(=O)OC)C(C)C)nc4-c4ccccc4)cc3)cc2)[nH]1)C(C)C
CC50 (PBMC): > 100 µM
CC50 [2]: > 1 µM
EC90 [3]: 0.7 nM
CC50 (Vero): > 100 µM
CC50 (CCRF-CEM): 37.4 µM

COC(=O)N[C@H](C(=O)N1C[C@H](N=[N+]=[N-])C[C@H]1c1nc(Cl)c(-c2ccc(-c3ccc(-c4[nH]c([C@@H]5C[C@@H](N=[N+]=[N-])CN5C(=O)[C@@H](NC(=O)OC)C(C)C)nc4Cl)cc3)cc2)[nH]1)C(C)C
CC50 (PBMC): 7.8 µM
CC50 [2]: > 1 µM
EC90 [3]: 0.0096 nM
CC50 (Vero): > 100 µM
CC50 (CCRF-CEM): 3.8 µM

COC(=O)N[C@H](C(=O)N1CCC[C@H]1c1nc(I)c(-c2ccc(-c3ccc(-c4[nH]c([C@@H]5CCCN5C(=O)[C@@H](NC(=O)OC)C(C)C)nc4I)cc3)cc2)[nH]1)C(C)C
CC50 (PBMC): 4.7 µM
t1/2 (Liver microsomes [1]): 38.5 min
CC50 [2]: > 1 µM
EC90 [3]: 0.011 nM
Stability [4]: Stable
Stability [5]: Stable
CC50 (Vero): > 100 µM
CC50 (CCRF-CEM): 35 µM
CLint (Liver microsomes [6]): 18 µL/min/mg
Activity [7]: Toxic

COC(=O)N[C@H](C(=O)N1C[C@H](n2cc(C(=O)OC)nn2)C[C@H]1c1ncc(-c2ccc(-c3ccc(-c4cnc([C@@H]5C[C@@H](n6cc(C(=O)OC)nn6)CN5C(=O)[C@@H](NC(=O)OC)C(C)C)[nH]4)cc3)cc2)[nH]1)C(C)C
CC50 (PBMC): 6.6 µM
CC50 [2]: > 1 µM
EC90 [3]: 0.0428 nM
CC50 (Vero): > 100 µM
CC50 (CCRF-CEM): 10.7 µM

COC(=O)N[C@H](C(=O)N1C[C@H](N=[N+]=[N-])C[C@H]1c1nc(Br)c(-c2ccc(-c3ccc(-c4[nH]c([C@@H]5C[C@@H](N=[N+]=[N-])CN5C(=O)[C@@H](NC(=O)OC)C(C)C)nc4Br)cc3)cc2)[nH]1)C(C)C
CC50 (PBMC): 19.8 µM
CC50 [2]: > 1 µM
EC90 [3]: 0.0216 nM
CC50 (Vero): > 100 µM
CC50 (CCRF-CEM): 10.8 µM

COC(=O)N[C@H](C(=O)N1CCC[C@H]1c1nc(-c2cccs2)c(-c2ccc(-c3ccc(-c4[nH]c([C@@H]5CCCN5C(=O)[C@@H](NC(=O)OC)C(C)C)nc4-c4cccs4)cc3)cc2)[nH]1)C(C)C
CC50 (PBMC): 44.6 µM
CC50 [2]: > 1 µM
EC90 [3]: 0.3 nM
CC50 (Vero): > 100 µM
CC50 (CCRF-CEM): > 100 µM

COC(=O)N[C@H](C(=O)N1CCC[C@H]1c1nc(-c2ccc(-c3ccc(-c4c[nH]c([C@@H]5CCCN5C(=O)[C@@H](NC(=O)OC)C(C)C)n4)cc3)cc2)c[nH]1)C(C)C
t1/2 (Liver microsomes [1]): 56.3 min
CC50 [2]: > 1 µM
IC50 (Cytochrome P450 2C9): 59.5 µM

COC(=O)N[C@H](C(=O)N1C[C@@H](N=[N+]=[N-])C[C@H]1c1nc(Cl)c(-c2ccc(-c3ccc(-c4[nH]c([C@@H]5C[C@H](N=[N+]=[N-])CN5C(=O)[C@@H](NC(=O)OC)C(C)C)nc4Cl)cc3)cc2)[nH]1)C(C)C
CC50 (PBMC): 3.3 µM
CC50 [2]: > 1 µM
EC90 [3]: 0.0746 nM
CC50 (Vero): 98.1 µM
CC50 (CCRF-CEM): 4 µM

COC(=O)N[C@H](C(=O)N1C[C@H](n2cc(-c3ccccc3)nn2)C[C@H]1c1ncc(-c2ccc(-c3ccc(-c4cnc([C@@H]5C[C@@H](n6cc(-c7ccccc7)nn6)CN5C(=O)[C@@H](NC(=O)OC)C(C)C)[nH]4)cc3)cc2)[nH]1)C(C)C
CC50 (PBMC): > 100 µM
CC50 [2]: > 1 µM
EC90 [3]: 9.2 nM
CC50 (CCRF-CEM): > 100 µM

COC(=O)N[C@H](C(=O)N1C[C@@H](N=[N+]=[N-])C[C@H]1c1nc(Br)c(-c2ccc(-c3ccc(-c4[nH]c([C@@H]5C[C@H](N=[N+]=[N-])CN5C(=O)[C@@H](NC(=O)OC)C(C)C)nc4Br)cc3)cc2)[nH]1)C(C)C
CC50 (PBMC): 3.4 µM
CC50 [2]: > 1 µM
EC90 [3]: 0.0553 nM
CC50 (CCRF-CEM): 4.5 µM

COC(=O)N[C@H](C(=O)N1CCC[C@H]1c1ncc(-c2ccc(-c3ccc(-c4[nH]c([C@@H]5CCCN5C(=O)[C@@H](NC(=O)OC)C(C)C)nc4F)cc3)cc2)[nH]1)C(C)C
CC50 (PBMC): 16 µM
CC50 [2]: > 1 µM
EC90 [3]: 0.0525 nM
CC50 (Vero): 83 µM
CC50 (CCRF-CEM): 2.8 µM

COC(=O)N[C@H](C(=O)N1CCC[C@H]1c1nc(-c2ccco2)c(-c2ccc(-c3ccc(-c4[nH]c([C@@H]5CCCN5C(=O)[C@@H](NC(=O)OC)C(C)C)nc4-c4ccco4)cc3)cc2)[nH]1)C(C)C
CC50 (PBMC): 49.2 µM
CC50 [2]: > 1 µM
EC90 [3]: 0.097 nM
CC50 (Vero): > 100 µM
CC50 (CCRF-CEM): 2.9 µM
